Results as given in patent US20100056468A1, “Pyrimidine Derivatives As Anticancer Agents” (University Health Network, priority 2007, published 2010).
Like-named read-outs stand apart in the source and are kept apart here.

How the values were obtained:
[1] = target: Mt ODCase (Methanothermobacter thermautotrophicus, UniProt O26232); conditions: read-out: inhibition constant (Ki), Mt ODCase; cited from earlier work
[2] = test system: CCD967; assay: WST-1 cell growth assay (Table 3); format: cell-based; conditions: Homo sapiens, CCD-967, 72 h; CCD967 skin fibroblast line, 3 days
Description: (§1) Thirteen C6 substituted nucleoside derivatives were tested against seventeen cancer cell lines in order to understand their anticancer activity potential. Cell growth was measured in 96 well plates (6 replicates per dose) in which 10^4 cells were seeded for 3 days with a range of concentrations of compound Ic and Id using the Roche WST-1 assay (Ishiyama M et al (1995) In Vitro Toxicology 8, 187-189) following manufactures directions.

[3] = test system: COLO205; assay: WST-1 cell growth assay (Table 3); format: cell-based; conditions: Homo sapiens, COLO 205, 72 h; COLO205 colorectal adenocarcinoma, 3 days
Description: as §1

[4] = test system: HS578T; assay: WST-1 cell growth assay (Table 3); format: cell-based; conditions: Homo sapiens, Hs-578T, 72 h; HS578T breast carcinosarcoma, 3 days
Description: as §1

[5] = test system: LOX; assay: WST-1 cell growth assay (Table 3); format: cell-based; conditions: Homo sapiens, 72 h; LOX melanoma, 3 days
Description: as §1

[6] = test system: MCF7; assay: WST-1 cell growth assay (Table 3); format: cell-based; conditions: Homo sapiens, 72 h; MCF7 breast adenocarcinoma, 3 days
Description: as §1

[7] = test system: MDA-MB-468; assay: WST-1 cell growth assay (Table 3); format: cell-based; conditions: Homo sapiens, 72 h; MDA-MB-468 breast adenocarcinoma, 3 days
Description: as §1

[8] = test system: OCI AML1; assay: WST-1 cell growth assay (Table 3); format: cell-based; conditions: Homo sapiens, 72 h; OCI AML1 myloid leukemia, 3 days
Description: as §1

[9] = test system: OCI AML2; assay: WST-1 cell growth assay (Table 3); format: cell-based; conditions: Homo sapiens, 72 h; OCI AML2 myloid leukemia, 3 days
Description: as §1

[10] = test system: OCI LY7; assay: WST-1 cell growth assay (Table 3); format: cell-based; conditions: Homo sapiens, 72 h; OCI LY7 B cell lymphoma, 3 days
Description: as §1

[11] = test system: OCI MY2; assay: WST-1 cell growth assay (Table 3); format: cell-based; conditions: Homo sapiens, 72 h; OCI MY2 myeloma, 3 days
Description: as §1

[12] = test system: OVCAR4; assay: WST-1 cell growth assay (Table 3); format: cell-based; conditions: Homo sapiens, OVCAR-4, 72 h; OVCAR4 ovarian adenocarcinoma, 3 days
Description: as §1

[13] = test system: PC3; assay: WST-1 cell growth assay (Table 3); format: cell-based; conditions: Homo sapiens, PC-3, 72 h; PC3 prostate adenocarcinoma, 3 days
Description: as §1

[14] = test system: PPC1; assay: WST-1 cell growth assay (Table 3); format: cell-based; conditions: Homo sapiens, PPC-1, 72 h; PPC1 prostate, 3 days
Description: as §1

[15] = test system: SKW3; assay: WST-1 cell growth assay (Table 3); format: cell-based; conditions: Homo sapiens, 72 h; SKW3 T cell leukemia, 3 days
Description: as §1

[16] = test system: SNB19; assay: WST-1 cell growth assay (Table 3); format: cell-based; conditions: Homo sapiens, SNB-19, 72 h; SNB19 glioblastoma, 3 days
Description: as §1

[17] = test system: T47D; assay: WST-1 cell growth assay (Table 3); format: cell-based; conditions: Homo sapiens, 72 h; T47D breast adenocarcinoma, 3 days
Description: as §1

[18] = test system: 70Z/3 (murine); assay: WST-1 cell growth assay (Table 3); format: cell-based; conditions: Mus musculus, 72 h; 70Z/3 murine B cell leukemia, 3 days
Description: as §1
In a pilot study, first the in vivo effects of compound Ic in a murine tumor model (70Z/3) were studied. This murine model served to provide the baseline for toxicity data in a tumor setting. […] In this pilot study, 10^6 70Z/3 cells were injected into syngeneic mice (C57BL6×DBA/2) after which the mice were treated with compound Ic on days 2, 3, 4, 7, 8, and 9 at doses of 0.15 mg/kg or 1.5 mg/kg or with PBS. Some mice were also treated with the compound alone to test for toxic effects in the absence of tumor growth. On day 10, two mice from each group were euthanized and they were examined for the presence of disease. After 70Z/3 cells are injected they home to the spleen and proliferate causing increased spleen weight and cellularity. […] It would appear from this very small pilot study that mice can tolerate a dose of the drug which is ten times more than a dose which reduces tumor expansion in the spleen (FIG. 4 and Table 2). […]

[19] = test system: PBMC - Peripheral blood mononuclear cells; assay: WST-1 cell growth assay on stimulated PBMCs (Table 3); format: cell-based, human
[20] = test system: leukemia/lymphoma and breast cancer cell lines (AML1, AML2, SKW3, OCI LY7, OCI MY2, MDA-MB-468 and MCF7); assay: WST-1 cell growth assay, summary over cell lines; format: cell-based; conditions: Homo sapiens, read-out: Inhibition constants (IC50s), range over cell lines
Description: as §1

[21] = test system: 70Z/3 murine acute lymphoblastic leukemia; assay: In vivo pilot study on 70Z/3 leukemic mice
Description: (§2) In a pilot study, first the in vivo effects of compound Ic in a murine tumor model (70Z/3) were studied. […]. In this pilot study, 10^6 70Z/3 cells were injected into syngeneic mice (C57BL6×DBA/2) after which the mice were treated with compound Ic on days 2, 3, 4, 7, 8, and 9 at doses of 0.15 mg/kg or 1.5 mg/kg or with PBS. Some mice were also treated with the compound alone to test for toxic effects in the absence of tumor growth. On day 10, two mice from each group were euthanized and they were examined for the presence of disease. After 70Z/3 cells are injected they home to the spleen and proliferate causing increased spleen weight and cellularity. […]. Two additional mice from each group were followed for an additional 7 days during which mice in the treatment groups were treated daily.

[22] = Tolerance in NOD-SCID mice; format: in vivo; conditions: 0.15 mg/kg and 1.5 mg/kg
Description: as §2

[23] = target: ODCase; conditions: cited from earlier work
[24] = test system: mouse L1210 leukemia cells; conditions: 25 μM, cultured mouse L1210 leukemia cells; cited from earlier work
[25] = Homo sapiens, volunteer, read-out: IC50
[26] = healthy human PBMCs stimulated with concanavalin A and phorbol myristate acetate, read-out: inhibitory constants (IC50's)

Chain of Mt ODCase (O26232 whole entry): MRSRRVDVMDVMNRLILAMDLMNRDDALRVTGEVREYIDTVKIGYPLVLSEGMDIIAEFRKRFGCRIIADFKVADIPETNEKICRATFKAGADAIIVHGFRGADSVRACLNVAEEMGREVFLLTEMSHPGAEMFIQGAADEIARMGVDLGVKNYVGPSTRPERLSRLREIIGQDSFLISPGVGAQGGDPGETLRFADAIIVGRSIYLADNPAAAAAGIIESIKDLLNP

SMILES | IC50 [2] | IC50 [3] | IC50 [4] | IC50 [5] | IC50 [6] | IC50 [7] | IC50 [8] | IC50 [9] | IC50 [10] | IC50 [11] | IC50 [12] | IC50 [13] | IC50 [14] | IC50 [15] | IC50 [16] | IC50 [17] | IC50 [18] | IC50 [19, 25] | IC50 [19, 26] | IC50 [20] | other results
O=c1cnn([C@@H]2O[C@H](COP(=O)(O)O)[C@@H](O)[C@H]2O)c(=O)[nH]1 [6-Aza-uridine uridine 5′-monophosphate, 6-aza-uridine 5′-monophosphate] | – | – | – | – | – | – | – | – | – | – | – | – | – | – | – | – | – | – | – | – | Ki [1]: 11 µM
Nc1cc(=O)[nH]c(=O)n1[C@@H]1O[C@H](CO)[C@@H](O)[C@H]1O [Ic, 6-Amino uridine] | > 4 µM | > 4 µM | > 4 µM | > 4 µM | 1500 ± 100 nM | 3.7 ± 0.1 µM | 800 ± 100 nM | 900 ± 100 nM | 1800 ± 100 nM | > 4 µM | > 4 µM | > 4 µM | > 4 µM | 800 ± 100 nM | > 4 µM | > 4 µM | 300 nM | > 10 µM | > 10 µM | 700 to 3500 nM | disease progression ([21]; followed for an additional 7 days, treated daily, untreated mice died on days 11 and 13): no sign of disease progression; spleen weight and cellularity ([21]; mice injected with 10^6 70Z/3 cells, 0.15 mg/kg or 1.5 mg/kg on days 2, 3, 4, 7, 8, 9, day 10): indistinguishable from the control mice; spleen weight or cellularity, compound alone ([21]; mice without tumor, compound alone, day 10): did not influence spleen weight or cellularity; tolerance [22]: tolerated these doses without apparent toxicity
[N-]=[N+]=Nc1cc(=O)[nH]c(=O)n1[C@@H]1O[C@H](CO)[C@@H](O)[C@H]1O [Id, 6-Azido uridine] | > 4 µM | > 4 µM | > 4 µM | 3.8 ± 0.2 µM | 1000 ± 200 nM | 2.5 ± 0.3 µM | 700 ± 100 nM | 800 ± 200 nM | 1000 ± 200 nM | 3.8 µM | > 4 µM | > 4 µM | > 4 µM | 700 ± 100 nM | > 4 µM | > 4 µM | 200 nM | > 10 µM | > 10 µM | 700 to 3500 nM | –
NC(=O)c1[nH]nc(C2OC(COP(=O)(O)O)C(O)C2O)c1O (centres unmarked) [Pyrazofurin 5′-monophosphate] | – | – | – | – | – | – | – | – | – | – | – | – | – | – | – | – | – | – | – | – | Ki [23]: 5 nM
NC(=O)c1[nH]nc([C@@H]2O[C@H](CO)[C@@H](O)[C@H]2O)c1O [pyrazofurin] | – | – | – | – | – | – | – | – | – | – | – | – | – | – | – | – | – | – | – | – | accumulation of OMP [24]: eight-fold increase
